This note sets out measurements from patent US20200255844A1, “MULTIPLEXED RECEPTOR-LIGAND INTERACTION SCREENS” (THE REGENTS OF THE UNIVERSITY OF CALIFORNIA, priority 2017, published 2020).

Counter-ions that a name gives are not always drawn.

What all share (format): cell-based, mouse
One assay has as its system MOR170-1. In words: High-throughput multiplexed odorant screening (Smell-seq), 96-well, barcode RNA-seq readout. The settings on record: OR MOR170-1; pair called as hit, FDR=1%. The procedure: (§1) 10. High-Throughput Odorant Screening
(§2) The OR library cell line was thawed from a liquid nitrogen frozen stock into a T-225 flask (Corning) three days before seeding into a 96-well plate for screening. The library was seeded at 6,666 cells per well in 100 ul of DMEM. 24 hours later a working concentration of 1 ug/ml of doxycycline in DMEM was added to the wells. 24 hours after induction, the media was removed from each plate and replaced with 25 ul of odorant diluted in OptiMEM. Each odor was added at three different concentrations (10 uM, 100 uM, 1 mM) in triplicate with the same amount of final DMSO (1%). Each plate contained two control odorants at a three concentration (10 uM, 100 uM, 1 mM) in triplicate and three wells containing 1% DMSO dissolved in media. The library was incubated with odorants for three hours in a cell culture incubator with the lids removed.
(§3) After odor incubation, media was pipetted out of the plates and cells were lysed by adding 25 uL of ice-cold Cells-to-cDNA II Lysis Buffer (Thermo Fisher) and pipetting up and down to homogenize and lyse cells. The lysate was then heated to 75° C. for 15 minutes and flash frozen with liquid nitrogen and kept at −80 C until further processing. Then 0.5 uL DNase I (New England Biolabs) was added to lysate, and incubated at 37° C. for 15 minutes. To anneal the RT primer, 5 ul of lysate from each well was combined with 2.5 ul of 10 mM dNTPs (New England Biosciences), 1 ul of 2 uM gene specific RT primer (OL003), and 1.5 ul of H2O. The reaction was heated to 65° C. for 5 min and cooled back down to 0° C. After annealing, 1 ul of M-MuLV Reverse Transcriptase (Enzymatics), 1 ul of buffer, and 0.25 ul of RNase Inhibitor (Enzymatics) were added to each reaction. Reactions were incubated at 42° C. for 60 min and the RT enzyme was heat inactivated at 85° C. for 10 min.
(§4) For each batch, qPCR was performed on a few wells (OL005F and OL013) with SYBR FAST qPCR Mastermix to determine the number of cycles necessary for PCR based library preparation. The reaction and cycling conditions are optimized as follows: 95° C. for 3 minutes, 40 cycles of 95° C. for 3 seconds and 60° C. for 20 seconds. After qPCR, 5 ul of each RT reaction was combined with 0.4 ul of 10 uM primers containing sequencing adaptors (OL005F and OL013), 10 ul of NEB-Next Q5 Mastermix (New England Biosciences) and 4.2 ul H2O, the PCR was carried out according to the manufacturer's protocol. The forward primer contains the P7 adaptor sequence and an index identifying the well in the assay and the reverse primer contains the P5 adaptor sequence and an index identifying the plate in the assay. PCR products were pooled together by plate and purified with the DNA Clean and Concentrator Kit. Library concentrations were quantified using a Tape Station 2200 and a Qubit (Thermo Fisher). The libraries were sequenced with two index reads and a single end 75-bp read on a NextSeq 500 in high-output mode (Illumina).
(§5) 11. Analysis of Next-Generation Sequencing Data
(§6) Samples were identified via indexing by their PCR indexes adapters unique for each well (5′ end) and unique for each plate (3′ end). The well barcodes followed the 7 bp indexing scheme in (Illumina Sequencing Library Preparation for Highly Multiplexed Target Capture and Sequencing Matthias Meyer, Martin Kircher, Cold Spring Harb Protoc; 2010; doi:10.1101/pdb.prot5448). The plate indexing scheme followed the Illumina indexing scheme. Sequencing data was demultiplexed and 15 bp barcode sequences were counted with only exact matches by custom python and bash scripts.
(§7) 12. Statistical Methods for Calling Hits
(§8) Count data was then analyzed using the differential expression package EdgeR. To filter out ORs with low representation, we set a cutoff that an OR had to contain at least 0.5% of the reads from more than 399 of the 1954 test samples. This filtered out 3 of 42 ORs which were underrepresented in the cell library (MOR172-1, MOR176-1 and MOR181-1). […]

For a further assay, the system named is MOR203-1. In words: High-throughput multiplexed odorant screening (Smell-seq), barcode RNA-seq readout. The settings on record: OR MOR203-1; pair called as hit, FDR=1%. The text has this: (§9) We subsequently screened 182 odorants at three concentrations in triplicate against the OR cell library, the equivalent of ˜85,000 individual luciferase assays including controls (FIG. 10A, Table 2). Each 96-well plate in the assay contained positive control odorants and solvent DMSO wells for normalization (FIG. 16). We used the EdgeR software package to determine differentially responsive ORs based on a negative binomial model of barcode counts. We found 114 OR-odorant interactions (out of 7,200 possible), 81 of which are novel, and 24 interactions with 15 orphan receptors (FIG. 10C, FIG. 17 and Supplementary Table 4) (FDR=1%; Benjamini-Hochberg correction). Overall 28 of 39 receptors were activated by at least one odorant, and 68 of 182 odorants activated at least one OR (Table 4). We chose 37 interactions of at least 1.2 fold induction to test individually with a previously developed transient OR assay that has several important differences (FIG. 18). Of the 28 interactions called as hits at an FDR of 1%, 21 of them replicated in this orthogonal system (FIG. 17). […] Conversely, we also detect 14 interactions that this previous study tested, but called negative.

The next assay deals with MOR139-1. Described as above. The settings on record: OR MOR139-1; pair called as hit, FDR=1%.
Excerpt: as §9

The next assay has as its system MOR119-1. The assay is described as above. Conditions: OR MOR119-1; pair called as hit, FDR=1%.
Excerpt: as §9

Another assay concerns MOR112-1. The description is as above. The settings on record: OR MOR112-1; pair called as hit, FDR=1%.
Excerpt: as §9

The subject of the next assay is MOR131-1. Described as above. Conditions: OR MOR131-1; pair called as hit, FDR=1%.
Excerpt: as §9

The next assay deals with MOR9-1. The assay is described as above. The settings on record: OR MOR9-1; pair called as hit, FDR=1%.
Excerpt: as §9

For the next assay, the system named is MOR142-1. The description is as above. Conditions: OR MOR142-1; pair called as hit, FDR=1%.
Excerpt: as §9

Another assay has as its system MOR165-1. Described as above. The settings on record: OR MOR165-1; pair called as hit, FDR=1%.
Excerpt: as §9

The subject of the next assay is MOR5-1. In words: High-throughput multiplexed odorant screening (Smell-seq), 96-well, barcode RNA-seq readout. The settings on record: OR MOR5-1; pair called as hit, FDR=1%. On the procedure:
as §1, §2, §3, §4, §5, §6, §7, §8

A further assay has as its system MOR23-1. In words: High-throughput multiplexed odorant screening (Smell-seq), barcode RNA-seq readout. The settings on record: OR MOR23-1; pair called as hit, FDR=1%.
Excerpt: as §9

In another assay the test system is MOR4-1. The description is as above. Conditions: OR MOR4-1; pair called as hit, FDR=1%.
Excerpt: as §9

The next assay concerns MOR158-1. Described as above. Conditions: OR MOR158-1; pair called as hit, FDR=1%.
Excerpt: as §9

Assay [1] concerns MOR19-1. In words: High-throughput multiplexed odorant screening (Smell-seq), 96-well, barcode RNA-seq readout. The settings on record: for OR-odorant interaction called as hit in the multiplexed screen: MOR19-1, odorant at 10 uM, 100 uM, 1 mM in triplicate, 3 hours, FDR=1% (Benjamini-Hochberg); for Minimum Activating Concentration: OR MOR 19-1, pair called as hit, FDR=1%.
Excerpt: as §9, §1, §2
as §3, with “After annealing, 1 ul of M-MuLV Reverse Transcriptase (Enzymatics), 1 ul of buffer, and 0.25 ul of RNase Inhibitor (Enzymatics) were added to each reaction. Reactions were incubated at 42° C. for 60 min and the RT enzyme was heat inactivated at 85° C. for 10 min.” left out

Assay [2] relates to MOR19-1. In words: Odorant-receptor activation luciferase assay (transient), orthogonal follow-up. The settings on record: interactions called as hits at an FDR of 1% tested individually. The text has this:
We subsequently screened 182 odorants at three concentrations in triplicate against the OR cell library, the equivalent of ˜85,000 individual luciferase assays including controls (FIG. 10A, Table 2). Each 96-well plate in the assay contained positive control odorants and solvent DMSO wells for normalization (FIG. 16). We used the EdgeR software package to determine differentially responsive ORs based on a negative binomial model of barcode counts. We found 114 OR-odorant interactions (out of 7,200 possible), 81 of which are novel, and 24 interactions with 15 orphan receptors (FIG. 10C, FIG. 17 and Supplementary Table 4) (FDR=1%; Benjamini-Hochberg correction). Overall 28 of 39 receptors were activated by at least one odorant, and 68 of 182 odorants activated at least one OR (Table 4). We chose 37 interactions of at least 1.2 fold induction to test individually with a previously developed transient OR assay that has several important differences (FIG. 18). […]
The Dual-Glo Luciferase Assay System (Promega) was used to measure OR-odorant responses as previously described (Zhuang and Matsunami 2008). […] Luminescence was measured using the M1000 plate reader (Tecan). All luminescence values were normalized to Renilla luciferase activity to control for transfection efficiency in a given well. Data were analyzed with Microsoft Excel and R.

The next assay deals with MOR13-1. In words: High-throughput multiplexed odorant screening (Smell-seq), 96-well, barcode RNA-seq readout. The settings on record: OR MOR13-1; pair called as hit, FDR=1%.
Excerpt: We find that chemicals with similar features activate similar sets of ORs, including those receptors we deorphanize in this study. For example, the previously orphan MOR13-1 is activated by four chemicals with polar groups attached, in three cases, to stiff non-rotatable scaffolds. Another example is, MOR19-1, which has clear affinity for the salicylate functional group. To better understand how chemical similarity relates to receptor activation without relying on incomplete and sometimes arbitrary chemical descriptors, we used a previously validated computational autoencoder to represent each chemical in a ˜292 dimensional latent space, allowing nearly lossless compression of chemical structure (Data not shown). We find chemicals that activate the same OR tend to cluster distinctly (FIG. 10D, FIG. 20). […] Many, but not all of the receptors. […] Understanding the space of chemicals that activates each OR establishes the groundwork for prediction of novel odorant-OR interactions.
as §1, §2
After odor incubation, media was pipetted out of the plates and cells were lysed by adding 25 uL of ice-cold Cells-to-cDNA II Lysis Buffer (Thermo Fisher) and pipetting up and down to homogenize and lyse cells. The lysate was then heated to 75° C. for 15 minutes and flash frozen with liquid nitrogen and kept at −80 C until further processing. Then 0.5 uL DNase I (New England Biolabs) was added to lysate, and incubated at 37° C. for 15 minutes. […]
For each batch, qPCR was performed on a few wells (OL005F and OL013) with SYBR FAST qPCR Mastermix to determine the number of cycles necessary for PCR based library preparation. […] Library concentrations were quantified using a Tape Station 2200 and a Qubit (Thermo Fisher). The libraries were sequenced with two index reads and a single end 75-bp read on a NextSeq 500 in high-output mode (Illumina). […]

A further assay concerns MOR133-1. Nature of the assay: High-throughput multiplexed odorant screening (Smell-seq), barcode RNA-seq readout. The settings on record: OR MOR133-1; pair called as hit, FDR=1%.
Excerpt: as §9

The subject of the next assay is Olfr62. The description is as above. The settings on record: OR Olfr62; pair called as hit, FDR=1%.
Excerpt: as §9

Turning to `CC(=O)OCc1ccc2c(c1)OCO2` [Piperonyl acetate], the “Minimum Activating Concentration” value in the assay on MOR170-1 and in the assay on MOR203-1 was 1000 µM each time.

Turning to `CC(C=O)Cc1ccc2c(c1)OCO2` (centres unmarked) [helional], the “Minimum Activating Concentration” value in the assay with MOR170-1, with MOR139-1 and in the assay with MOR203-1 was 1000 µM throughout.

Regarding `CCCCCCCCCCOC(C)=O` [n-Decyl acetate], the “Minimum Activating Concentration” value with MOR119-1 stood at 100 µM.

For `CC1COCc2cc3c(cc21)C(C)(C)C(C)C3(C)C` (centres unmarked) [galaxolide], the “Minimum Activating Concentration” value was determined as 100 µM in the assay on MOR112-1, 1000 µM with MOR131-1 and 1000 µM with MOR9-1.

For the compound `Cc1occc1SSc1ccoc1C` [Bis(2-methyl-3-furyl)disulphide)], in the assay on MOR142-1, the “Minimum Activating Concentration” value is 1000 µM.

As for `CCCCCCCCOC=O` [Octyl formate], in the assay with MOR165-1, the “Minimum Activating Concentration” value was 1000 µM.

Turning to `CCCCCC(=O)O` [Hexanoic Acid], the “Minimum Activating Concentration” value in the assay with MOR5-1, with MOR23-1 and with MOR4-1 was 1000 µM throughout.

Take `CC(=O)C1(C)CC2=C(CCCC2(C)C)CC1C` (centres unmarked) [Iso E Super]: in the assay with MOR158-1, the “Minimum Activating Concentration” value came to 1000 µM.

`O=C(OCc1ccccc1)c1ccccc1O` [benzyl salicylate]: in the assay with MOR19-1 [1], the “OR-odorant interaction called as hit in the multiplexed screen” value is given as “hits” and the “Minimum Activating Concentration” value is 10 µM. In addition, the “replication of the hit in the orthogonal transient OR luciferase assay” value in the assay with MOR19-1 [2] is reported as “did not replicate”.

For the compound `CCCCC(=O)O` [Pentanoic Acid], the “Minimum Activating Concentration” value in the assay on MOR13-1 and with MOR4-1 was 1000 µM throughout.

For decanedioic acid (sebacic acid), the “Minimum Activating Concentration” value in the assay on MOR165-1 came to 1000 µM.

`CCCCCC(=O)CC` [3-Octanone]: the “Minimum Activating Concentration” value in the assay on MOR133-1 stood at 1000 µM.

Regarding `COC(=O)c1ccccc1O` [methyl salicylate], in the assay on MOR19-1 [1], the “OR-odorant interaction called as hit in the multiplexed screen” value is “hits” and the “Minimum Activating Concentration” value came out at 1000 µM. In addition, in the assay on MOR19-1 [2], the “replication of the hit in the orthogonal transient OR luciferase assay” value is reported as “did not replicate”.

As to `CSSCc1ccco1` [Furfuryl methyl disulfide], the “Minimum Activating Concentration” value in the assay on MOR119-1 amounted to 1000 µM.

In the case of `O=Cc1ccccc1` [Benzaldehyde], the “Minimum Activating Concentration” value in the assay on MOR13-1, in the assay with MOR112-1 and in the assay with Olfr62 was 1000 µM throughout.
